This is an account of results in patent US10981932B2, “Macrocyclic indole derivatives” (Bayer Aktiengesellschaft, priority 2016, dated 2021).

Series [1] relates to SUDHL5. As to the kind of experiment: Induction of cytotoxicity (CellTiter-Glo, 5 h), SUDHL5. The settings on record: read-out: Cytotox SUDHL5 [M] (median); SUDHL5 cells, cytotoxicity induction, CellTiter-Glo, 5 h incubation, median. A general note: Cellular ATP, detected with luciferase, serves as a proxy for viable cell number.
Series [2] deals with SUDHL5. As to the kind of experiment: Induction of caspase-3/7 activity (Caspase-Glo 3/7), SUDHL5. The conditions noted are these: caspase-3/7 induction, SUDHL5 cells, 3 h treatment; median. Format: cell-based. In short, it runs like this: (§1)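 DLBCL cells treated with compounds for 3 h at 37 °C, then caspase-3/7 activity read by Caspase-Glo 3/7 luminescence. Medium-only background subtracted; EC50 fitted with C0 fixed at 1 and top set to the reference compound's maximal induction.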

In series [3] the test system is SUDHL10. As to the kind of experiment: Induction of caspase-3/7 activity (Caspase-Glo 3/7), SUDHL10. The format is cell-based. The conditions noted are these: caspase-3/7 induction, SUDHL10 cells, 3 h treatment, median. The gist of the method: as §1
The test system of series [4] is SUDHL10. Description: Induction of cytotoxicity (CellTiter-Glo, 5 h), SUDHL10.
A further series concerns A2780. As to the kind of experiment: Anti-proliferative effect (CellTiter-Glo, 72 h), A2780. The conditions noted are these: A2780 cells, median, read-out: IC50 antiproliferation assay A2780 [M] (median). The format is cell-based. The gist of the method:
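A time zero plate, read with CellTiter-Glo shortly after seeding, served as baseline; compound-treated plates were incubated 72 h at 37 °C and then read identically by luminescence.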

Series [5] concerns SUDHL5. As to the kind of experiment: Anti-proliferative effect (CellTiter-Glo, 72 h), SUDHL5. The format is cell-based. The settings on record: SUDHL5 cells, antiproliferation, 72 h incubation, median, read-out: Antiproli SUDHL5 [M] (median). As to the method:
Assessment of the Anti-Proliferative Effect of Compounds in Different Cell Lines
The impact of compounds on the proliferation of different cell lines was assessed using the CellTiter-Glo® Luminescent Cell Viability reagent from Promega (G7573). Of note, SUDHL10 and SUDHL5 (DLBCL), NCI-H929 (Multiple Myeloma), A2780 (ovarian carcinoma) as well as MV-4-11(AML) cells are sensitive to MCL-1 inhibition.
In parallel, cells were plated in a reference (day 0) plate for time zero determination.
Rim wells were excluded. The cells were incubated for 72 h hours in a humidified incubator at 37° C. The day 0 plate was measured by adding 30 μl/well of CTG solution (CellTiter-Glo® Luminescent Cell Viability reagent, Promega G7573) to time zero wells in the reference plate followed by a 10 minutes incubation and luminescence reading at 0.1 ms, using the PHERAstar FS microplate reader (BMG Labtech).
After 72 h incubation, the treated plates were measured in the same way as the day 0 plate mentioned above.

The next series has as its target MCL-1 (Homo sapiens, UniProt Q07820). As to the kind of experiment: Protein-protein interaction assay MCL-1/Noxa BH3 peptide (MCL-1 assay), TR-FRET. The format is binding. The conditions noted are these: MBP-MCL-1 / Noxa BH3-derived peptide, median. In short, it runs like this:
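TR-FRET, 665/622 nm emission ratio (excitation 330–350 nm), measured MCL-1/Noxa complex formation. 1 nM MBP-MCL-1, 50 mM Tris/HCl pH 7, 0.1% BGG, 2 mM DTT. Incubation 1 h at 22 °C, then overnight at 4 °C. IC50 by 4-parameter regression, normalized to DMSO (0%) and no-MCL-1 (100%) controls.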
For orientation: Time-resolved FRET reads energy transfer from a long-lived donor to a nearby acceptor.

[6] abbreviates: read-out: Cytotox SUDHL10 [M] (median), SUDHL10 cells, cytotoxicity induction, CellTiter-Glo, 5 h incubation, median.
The mark [7] stands for this setting: Homo sapiens, SU-DHL10, 5 h, read-out: Cytotox SUDHL10 [M] (median), SUDHL10 cells, cytotoxicity induction, CellTiter-Glo, 5 h incubation, median.

Structures can show the parent of a compound that is named as a salt. Where two headings read alike, the source gives them in different places. A value given as a limit tells only on which side of the number the result lay.

Chain of MCL-1 (Q07820 whole entry): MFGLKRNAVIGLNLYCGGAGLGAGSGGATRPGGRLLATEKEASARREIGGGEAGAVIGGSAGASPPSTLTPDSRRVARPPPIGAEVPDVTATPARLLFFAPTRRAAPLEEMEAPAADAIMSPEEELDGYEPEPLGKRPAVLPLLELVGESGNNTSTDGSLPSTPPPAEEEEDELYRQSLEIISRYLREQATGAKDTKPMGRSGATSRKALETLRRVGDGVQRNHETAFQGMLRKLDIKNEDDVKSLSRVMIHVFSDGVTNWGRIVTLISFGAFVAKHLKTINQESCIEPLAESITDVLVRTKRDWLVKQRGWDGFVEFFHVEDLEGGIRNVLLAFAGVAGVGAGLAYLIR

By EC50 is commonly meant the concentration giving half of the maximal effect. As for `COc1c2c(nn1C)COCCCCn1c(C(=O)O)c(CCCOc3cccc4ccccc34)c3cccc-2c31` (single isomer, unassigned) [Example 209, 3-methoxy-2-methyl-7-[3-(naphthalen-1-yloxy)propyl]-2,10,11,12,13,15-hexahydropyrazolo[4′,3′:9,10][1,6]oxazacycloundecino[8,7,6-hi]indole-8-carboxylate], the IC50 is above 3.3e-05 M with SUDHL5 [1]; above 3.3e-05 M in the series with SUDHL10 [4] (setting [6]); 1.58e-05 M with A2780; 1.58e-05 M in the series on SUDHL5 [5]; 0.025 µM against MCL-1. Also, the EC50 with SUDHL5 [2] and with SUDHL10 [3] was above 33 µM each time.
Turning to `CCc1nn(C)c2c1-c1c(C)ccc3c(C(C)CCOc4cccc5cc(F)ccc45)c(C(=O)O)n(c13)CCCCOC2` (single isomer, unassigned) [Example 262, 3-ethyl-7-{4-[(6-fluoronaphthalen-1-yl)oxy]butan-2-yl}-1,4-dimethyl-1,10,11,12,13,15-hexahydropyrazolo[4′,3′:9,10][1,6]oxazacycloundecino[8,7,6-hi]indole-8-carboxylic Acid], the IC50 amounted to 1.67e-05 M with SUDHL5 [1]; 2.15e-05 M in the series on SUDHL10 [4] (setting [6]); 7.54e-06 M with A2780; 4.2e-06 M in the series on SUDHL5 [5]; 0.0388 µM against MCL-1. Besides, the 50% effective concentration (EC50) with SUDHL5 [2] is 22.6 µM; in the series on SUDHL10 [3] it was above 33 µM.
`CCc1nn(C)c2c1-c1c(C)ccc3c(C(C)CCOc4cccc5cc(F)ccc45)c(C(=O)O)n(c13)CCCCOC2` (single isomer, unassigned) [Example 263, 3-ethyl-7-{4-[(6-fluoronaphthalen-1-yl)oxy]butan-2-yl}-1,4-dimethyl-1,10,11,12,13,15-hexahydropyrazolo[4′,3′:9,10][1,6]oxazacycloundecino[8,7,6-hi]indole-8-carboxylic Acid]: the IC50 was above 3.3e-05 M in the series on SUDHL5 [1]; 2.79e-05 M in the series with SUDHL10 [4] (setting [6]); 1.01e-05 M with A2780; 4.61e-06 M in the series on SUDHL5 [5]; 0.926 µM at MCL-1. Besides, the EC50 in the series with SUDHL5 [2] and in the series on SUDHL10 [3] was above 33 µM in each case.
In the case of `CCc1nn(C)c2c1-c1c(C)ccc3c(C(C)CCOc4cccc5cc(F)ccc45)c(C(=O)O)n(c13)CCCCOC2` (single isomer, unassigned) [Example 264, 3-ethyl-7-{4-[(6-fluoronaphthalen-1-yl)oxy]butan-2-yl}-1,4-dimethyl-1,10,11,12,13,15-hexahydropyrazolo[4′,3′:9,10][1,6]oxazacycloundecino[8,7,6-hi]indole-8-carboxylic Acid], the IC50 is above 3.3e-05 M in the series on SUDHL5 [1]; above 3.3e-05 M in the series on SUDHL10 [4] (setting [6]); 1.92e-05 M in the series with A2780; 1.67e-05 M in the series with SUDHL5 [5]; 0.132 µM at MCL-1. The EC50 in the series on SUDHL5 [2] and with SUDHL10 [3] was above 33 µM each time.
For the compound `Cc1nn(C)c2c1-c1cccc3c(CCCOc4cccc5ccccc45)c(C(=O)O)n(c13)CCCN(c1ccc(N3CCN(S(=O)(=O)N(C)C)CC3)cc1)C2` (single isomer, unassigned; enantiomer 1) [Example 1-106, 7-{4-[4-(Dimethylsulfamoyl)piperazin-1-yl]phenyl}-9,11-dimethyl-1-[3-(1-naphthyloxy)propyf]-4,5,6,7,8,9-hexahydropyrazolo[3′,4′:7,8][1,5]diazecino[9,10,1-hi]indole-2-carboxylic Acid (Enantiomer 1)], the IC50 with SUDHL5 [1] was 1.49e-05 M; with SUDHL10 [4] (setting [7]), 1.89e-05 M; in the series with A2780 (Homo sapiens, A2780, 72 h) it was 8.83e-06 M; in the series on SUDHL5 [5] (Homo sapiens, SU-DHL-5, 72 h), 4.15e-06 M; on MCL-1 it was 0.0163 µM. Besides, the EC50 in the series with SUDHL5 [2] turned out to be 11.5 µM; in the series on SUDHL10 [3], 9.37 µM.
Consider `Cc1c2c(nn1C)COCCCn1c(C(=O)O)c(CCCOc3cccc4ccccc34)c3cccc-2c31` (single isomer, unassigned; enantiomer 1) [Example 064, 10,11-dimethyl-1-[3-(naphthalen-1-yloxy)propyl]-5,6,8,10-tetrahydro-4H-pyrazolo[4′,3′:8,9][1,5]oxazecino[7,6,5-h]indole-2-carboxylic acid-N-ethylethanamine Salt (Enantiomer 1)], for which the IC50 came to 7.53e-06 M in the series with SUDHL5 [1]; 2.59e-05 M in the series on SUDHL10 [4] (setting [7]); 3.14e-05 M with A2780 (Homo sapiens, A2780, 72 h); 1.12e-05 M with SUDHL5 [5]; 0.0115 µM against MCL-1. In addition, the EC50 in the series with SUDHL5 [2] worked out at 4.98 µM; in the series on SUDHL10 [3] (Homo sapiens, SU-DHL10, 3 h), 17.5 µM.
With `CCn1nc(C2CC2)c2c1COCCCCn1c(C(=O)O)c(CCCOc3cccc4ccccc34)c3cccc-2c31` (single isomer, unassigned; enantiomer 1) [Example 089, 3-cyclopropyl-1-ethyl-7-[3-(naphthalen-1-yloxy)propyl]-1,10,11,12,13,15-hexahydropyrazolo[4′,3′:9,10][1,6]oxazacycloundecino[8,7,6-hi]indole-8-carboxylic acid-N-ethylethanamine Salt (Enantiomer 1)], the IC50 in the series on SUDHL5 [1] was 7e-06 M; in the series on SUDHL10 [4] (setting [7]), 3e-05 M; in the series with A2780 (Homo sapiens, A2780, 72 h), above 3.3e-05 M; in the series with SUDHL5 [5] (Homo sapiens, SU-DHL-5, 72 h), 1.71e-05 M; against MCL-1, 0.00384 µM. Also, the EC50 was 6.76 µM in the series on SUDHL5 [2] and 24.1 µM in the series on SUDHL10 [3] (Homo sapiens, SU-DHL10, 3 h).
Regarding `Cc1nn(CC(F)(F)F)c2c1-c1cccc3c(CCCOc4cccc5c4CCCC5)c(C(=O)O)n(c13)CCCCOC2` (single isomer, unassigned; enantiomer 1) [Example 162, 3-methyl-7-[3-(5,6,7,8-tetrahydronaphthalen-1-yloxy)propyl]-1-(2,2,2-trifluoroethyl)-1,10,11,12,13,15-hexahydropyrazolo[4′,3′:9,10][1,6]oxazacycloundecino[8,7,6-hi]indole-8-carboxylic acid-N-ethylethanamine Salt (Enantiomer 1)], the IC50 is 8.92e-06 M in the series with SUDHL5 [1]; 2.3e-05 M in the series with SUDHL10 [4] (setting [7]); 2.55e-05 M in the series on A2780 (Homo sapiens, A2780, 72 h); 6.96e-08 M with SUDHL5 [5]; 0.00761 µM against MCL-1. Besides, the EC50 with SUDHL5 [2] worked out at 5.35 µM; with SUDHL10 [3] (Homo sapiens, SU-DHL10, 3 h), 23.2 µM.
Turning to `Cc1nn(C)c2c1-c1cccc3c(CCCOc4cccc5cc(Cl)ccc45)c(C(=O)O)n(c13)CCCCOC2` (single isomer, unassigned; enantiomer 2) [Example 042, 7-{3-[(6-chloronaphthalen-1-yl)oxy]propyl}-1,3-dimethyl-1,10,11,12,13,15-hexahydropyrazolo[4′3′:9,10][1,6]oxazacycloundecino[8,7,6-hi]indole-carboxylic acid-N-ethylethanamine Salt (Enantiomer 2)], the IC50 with SUDHL5 [1] is above 3.3e-05 M; in the series with SUDHL10 [4] (setting [6]) it was 3e-05 M; in the series with A2780, 1.02e-05 M; with SUDHL5 [5], 4.97e-06 M; at MCL-1, 0.0566 µM. The EC50 in the series with SUDHL5 [2] and in the series on SUDHL10 [3] was above 33 µM in each case.
For `Cc1nn(C)c2c1-c1cccc3c(CCCOc4cccc5ccccc45)c(C(=O)O)n(c13)CCCOC2` (single isomer, unassigned; enantiomer 2) [Example 045, 9,11-dimethyl-1-[3-(naphthalen-1-yloxy)propyl]-5,6,8,9-tetrahydro-4H-pyrazolo[4′,3′:8,9][1,5]oxazecino[7,6,5-hi]indole-2-carboxylic acid-N-ethylethanamine Salt (Enantiomer 2)], the IC50 was determined as 2.59e-05 M in the series with SUDHL5 [1]; 2.89e-05 M in the series with SUDHL10 [4] (setting [6]); 2.78e-05 M with A2780; 5.73e-06 M in the series with SUDHL5 [5]; 0.0259 µM against MCL-1. For the same compound, the values for the EC50 with SUDHL5 [2] and in the series with SUDHL10 [3] were above 33 µM and 32.7 µM, respectively.
